Test results taken from patent US7964531B2, “3-phenoxy-4-pyridazinol derivatives and herbicidal composition containing the same” (Mitsui Chemicals Agro, Inc., priority 2001, dated 2011).

Legend:
Type in all cases: in vivo
[1] = system: Cyperus serotinus; test: Test Example 1: herbicidal effects, paddy-field pot test; conditions: wettable powder applied 3 days after transplanting, judged after 25 days
How it was run: (§1)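 Paddy-soil pots sown with weed seeds, germinated Cyperus serotinus tubers and 2.2-leaf rice transplants, kept flooded in a greenhouse. Wettable powder diluted in water applied at set dosage 3 days after transplanting. Weed control and rice injury scored 25 days later on a 0-5 growth-inhibition scale.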

[2] = system: Scirpus joncoides; test: as above; conditions: wettable powder applied 3 days after transplanting, judged after 25 days
How it was run: as §1

[3] = system: annual broad-leaved weeds (Lindernia spp., Rotala indica); test: as above; conditions: wettable powder applied 3 days after transplanting, judged after 25 days
How it was run: as §1

[4] = system: barnyardgrass (Echinochloa oryzicola Vasing.); test: as above; conditions: wettable powder applied 3 days after transplanting, judged after 25 days
How it was run: as §1

[5] = system: transplanted paddy-field rice; test: Test Example 1: crop injury against transplanted paddy-field rice; conditions: wettable powder applied 3 days after transplanting, judged after 25 days
How it was run: as §1

[6] = system: barnyardgrass; test: Test Example 2: herbicidal effects (soil treatment); conditions: dosage 2 kg/a; soil treatment the day after seeding; judged after 21 days
How it was run: (§2)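 Pre-emergence test: seeds sown in upland soil in 150 cm^2 pots in a greenhouse, wettable powder diluted in water applied to soil surface the day after sowing at a predetermined dosage. Growth inhibition scored 21 days after treatment on a 0–5 scale (0: 0–10% to 5: 91–100%).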

[7] = system: indian mustard (Brassica juncea (L.) Czern. et Coss); test: as above; conditions: dosage 2 kg/a; soil treatment the day after seeding; judged after 21 days
How it was run: as §2

[8] = system: black nightshade; test: Test Example 3: herbicidal effects (foliar treatment); conditions: chemical dosage 2 kg/a; foliar treatment at 10 to 15 cm; judged after 14 days
Experimental: (§3) Judgment Standard • 0: Growth inhibition rate; 0 to 10% • 1: Growth inhibition rate; 11 to 30% • 2: Growth inhibition rate; 31 to 50% • 3: Growth inhibition rate; 51 to 70% • 4: Growth inhibition rate; 71 to 90% • 5: Growth inhibition rate; 91 to 100%.
(§4) Upland soil was filled in 150 cm^2 pot, and seeds of velvetleaf, tall morningglory, indian mustard, black nightshade redroot pigweed were sowed, and grown in a greenhouse. After the weeds were grown with 10 to 15 cm or so, a predetermined chemical dosage of the wettable powder prepared in accordance with Preparation example 1 was diluted with water containing 0.05% of GRAMIN-S and applied as a foliar treatment. After 14 days from the treatment, herbicidal effects were judged in accordance with the judgment standard of Test example 1, and the results were shown in Table 4. Incidentally, “-” in the table means no test was carried out.

[9] = system: indian mustard; test: as above; conditions: chemical dosage 2 kg/a; foliar treatment at 10 to 15 cm; judged after 14 days
Experimental: as §3, §4

[10] = system: redroot pigweed; test: as above; conditions: chemical dosage 2 kg/a; foliar treatment at 10 to 15 cm; judged after 14 days
Experimental: as §3, §4

[11] = system: tall morningglory; test: as above; conditions: chemical dosage 2 kg/a; foliar treatment at 10 to 15 cm; judged after 14 days
Experimental: as §3, §4

[12] = system: velvetleaf; test: as above; conditions: chemical dosage 2 kg/a; foliar treatment at 10 to 15 cm; judged after 14 days
Experimental: as §3, §4

[13] = system: Cyperus serotinus; test: Test Example 4: herbicidal effects of mixed wettable powder, paddy-field pot test; conditions: no second compound, after 25 days
How it was run: (§5)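 Flooded greenhouse pots of paddy soil were sown in the top 1 cm with dormancy-broken weed seeds and planted with tubers, and 2.2-leaf rice was transplanted. Three days later, water-diluted wettable powder was applied at set dosages, and growth inhibition was rated 25 days after that on a 0 (0–15%) to 5 (96–100%) scale.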

[14] = system: Eleocharis kuroguwai; test: as above; conditions: no second compound, after 25 days
How it was run: as §5

[15] = system: Sagittaria pygmaea; test: as above; conditions: no second compound, after 25 days
How it was run: as §5

[16] = system: Scirpus joncoides; test: as above; conditions: no second compound, after 25 days
How it was run: as §5

[17] = system: annual broad-leaved weeds (Lindernia spp. and Rotala indica); test: as above; conditions: no second compound, after 25 days
How it was run: as §5

[18] = system: barnyardgrass (Echinochloa oryzicola Vasing.); test: as above; conditions: no second compound, after 25 days
How it was run: as §5

[19] = system: transplanted paddy-field rice; test: Test Example 4: crop injury against transplanted paddy-field rice; conditions: no second compound, after 25 days
How it was run: as §5

Q: How did the “Herbicidal effects Cyperus serotinus” value ([1]; chemical dosage 10 g/a) turn out when `Cc1cccc(C2CC2)c1Oc1nnc(Cl)cc1O` [Example 23] was run?
A: 5 (Growth inhibition rate; 91 to 100%)

Q: And the “Herbicidal effects Cyperus serotinus” value ([1]; chemical dosage 20 g/a)?
A: 5 (Growth inhibition rate; 91 to 100%)

Q: What about the “Herbicidal effects Scirpus joncoides” value ([2]; chemical dosage 10 g/a) of the same compound?
A: 5 (Growth inhibition rate; 91 to 100%)

Q: And the “Herbicidal effects Scirpus joncoides” value ([2]; chemical dosage 20 g/a)?
A: 5 (Growth inhibition rate; 91 to 100%)

Q: What about the “Herbicidal effects Broad leaf” value ([3]; chemical dosage 10 g/a) of the same compound?
A: 5 (Growth inhibition rate; 91 to 100%)

Q: And the “Herbicidal effects Broad leaf” value ([3]; chemical dosage 20 g/a)?
A: 5 (Growth inhibition rate; 91 to 100%)

Q: And the “Herbicidal effects Barnyard grass” value ([4]; chemical dosage 10 g/a)?
A: 3 (Growth inhibition rate; 51 to 70%)

Q: And the “Herbicidal effects Barnyard grass” value ([4]; chemical dosage 20 g/a)?
A: 4 (Growth inhibition rate; 71 to 90%)

Q: And the “Crop injury against transplanted rice” value ([5]; chemical dosage 10 g/a)?
A: 0 (Growth inhibition rate; 0 to 10%)

Q: What about the “Crop injury against transplanted rice” value ([5]; chemical dosage 20 g/a) of the same compound?
A: 2 (Growth inhibition rate; 31 to 50%)

Q: What about the “Herbicidal effects Barnyard-grass” value [6] of the same compound?
A: 4 (Growth inhibition rate; 71 to 90%)

Q: What about the “Herbicidal effects indian mustard” value [7] of the same compound?
A: 5 (Growth inhibition rate; 91 to 100%)

Q: What about the “Herbicidal effects Black Night-shade” value [8] of the same compound?
A: 5 (Growth inhibition rate; 91 to 100%)

Q: What about the “Herbicidal effects indian mustard” value [9] of the same compound?
A: 5 (Growth inhibition rate; 91 to 100%)

Q: And the “Herbicidal effects Redroot pigweed” value [10]?
A: 4 (Growth inhibition rate; 71 to 90%)

Q: What about the “Herbicidal effects Tall Morningglory” value [11] of the same compound?
A: 5 (Growth inhibition rate; 91 to 100%)

Q: What about the “Herbicidal effects Velvet-leaf” value [12] of the same compound?
A: 4 (Growth inhibition rate; 71 to 90%)

Q: And the “Herbicidal effects Cyperus serotinus” value ([13]; derivative 5 g/a)?
A: 5 (Growth inhibition rate; 96 to 100%)

Q: What about the “Herbicidal effects Cyperus serotinus” value ([13]; derivative 10 g/a) of the same compound?
A: 5 (Growth inhibition rate; 96 to 100%)

Q: And the “Herbicidal effects Eleocharis kuroguwai” value ([14]; derivative 5 g/a)?
A: 2 (Growth inhibition rate; 36 to 55%)

Q: What about the “Herbicidal effects Eleocharis kuroguwai” value ([14]; derivative 10 g/a) of the same compound?
A: 3 (Growth inhibition rate; 56 to 75%)

Q: What about the “Herbicidal effects Sagittaria pygmaea” value ([15]; derivative 5 g/a) of the same compound?
A: 5 (Growth inhibition rate; 96 to 100%)

Q: And the “Herbicidal effects Sagittaria pygmaea” value ([15]; derivative 10 g/a)?
A: 5 (Growth inhibition rate; 96 to 100%)

Q: What about the “Herbicidal effects Scirpus joncoides” value ([16]; derivative 5 g/a) of the same compound?
A: 5 (Growth inhibition rate; 96 to 100%)

Q: What about the “Herbicidal effects Scirpus joncoides” value ([16]; derivative 10 g/a) of the same compound?
A: 5 (Growth inhibition rate; 96 to 100%)

Q: What about the “Herbicidal effects Broad leaf” value ([17]; derivative 5 g/a) of the same compound?
A: 5 (Growth inhibition rate; 96 to 100%)

Q: What about the “Herbicidal effects Broad leaf” value ([17]; derivative 10 g/a) of the same compound?
A: 5 (Growth inhibition rate; 96 to 100%)

Q: What about the “Herbicidal effects Barnyard grass” value ([18]; derivative 5 g/a) of the same compound?
A: 2 (Growth inhibition rate; 36 to 55%)

Q: What about the “Herbicidal effects Barnyard grass” value ([18]; derivative 10 g/a) of the same compound?
A: 3 (Growth inhibition rate; 56 to 75%)

Q: And the “Crop injury against transplanted rice” value ([19]; derivative 5 g/a)?
A: 0 (Growth-inhibition rate; 0 to 15%)

Q: And the “Crop injury against transplanted rice” value ([19]; derivative 10 g/a)?
A: 0 (Growth-inhibition rate; 0 to 15%)
